Where two headings read alike, the source gives them in different places.
Key:
[1] = system: RT112/84 human bladder tumor cell-derived xenograft (CDX) model; experiment: Anti-tumor activity in RT112/84 mouse xenograft (CDX) model (Example 7); assay type: in vivo; settings: Compound A 10 mg/kg oral once per day
Procedure: (§1) All mouse studies were approved by the Institutional Animal Care and Use Committee (IACUC) based on guidelines from the National Institutes of Health (NIH). Mice were maintained under pathogen-free conditions, and food and water were provided ad libitum.
The anti-tumor effect of Compound A and irinotecan hydrochloride as single-agents or in combination was assessed in the RT112/84 human bladder tumor cell-derived xenograft (CDX) model. Cells were expanded in RPMI-1640 (Gibco, Catalog Number 11875093) with 10% fetal bovine serum. These cells were free of mycoplasma and authenticated by STR profiling. Five million cells in log growth phase were resuspended in Hanks Balanced Salt Solution containing 50% Matrigel and implanted subcutaneously into the flank of each recipient female Crl:NU-Foxnlnu mouse. Mice were housed in microisolator cages with corn cob bedding with additional enrichment consisting of sterile nesting material (Innovive) and Bio-huts (Bio-Serv). Water (Innovive) and diet (Teklad Global 19% Protein Extruded Diet 2919, Irradiated) were provided ad libitum. The environment was maintained on a 12-hour light cycle at approximately 68-72° F. and 40-60% relative humidity.
Tumor Volume (TV) was calculated using the following formula: TV (mm^3)=(width×width×length)/2. Tumor growth inhibition (TGI) was calculated by [(TV controlfinal−TV treatedfinal)/(TV controlfinal−TV controlinitial)×100]. TV was analyzed for statistical significance utilizing GraphPad Prism version 10.0.3. Repeated Measures 2-Way ANOVA with Tukey's Multiple Comparisons was utilized, and P-values were derived from data collected on Day 14 (date of Vehicle group termination) and were considered statistically significant if less than 0.05. Tumor regression was calculated by using the percent change in tumor volume from the final tumor volume measurement from Day 73 when compared to the initial tumor volume from Day 1. Tumor regression was defined as reduced TV on Day 73 compared to Day 1. Tumor regression rate was defined as the percentage of animals per group with tumor regression.
Mean tumor volume at dosing start was approximately 249 mm^3, with ten mice randomized to each treatment group. Mice were dosed orally, once per day, with Vehicle, Compound A at 10 mg/kg, or dosed for 3 consecutive days followed by 4 days holiday by intraperitoneal (IP) injection of Compound B at 5 mg/kg, or combination of Compound A and Compound B. The vehicle group was a combination of Vehicle A (for Compound A, 0.5% 400 cps methylcellulose with 0.5% Tween-80 in sterile water) and Vehicle B (for irinotecan hydrochloride, Saline).

[2] = system: MKN45 (RCB1001) human gastric tumor cell-derived xenograft (CDX) model; experiment: Anti-tumor activity in MKN45 gastric mouse xenograft (CDX) model (Example 8); assay type: in vivo; settings: Compound A 10 mg/kg oral once per day
Procedure: as §1
The anti-tumor effect of Compound A and irinotecan hydrochloride as single-agents or in combination was assessed in the MKN45 (RCB1001) human gastric tumor cell-derived xenograft (CDX) model. MKN45 was expanded in RPMI1640 with 10% fetal bovine serum. Cells were free of mycoplasma and authenticated by STR profiling, and ten million cells in log growth phase were resuspended in Hanks Balanced Salt Solution containing 50% Matrigel and implanted subcutaneously into the flank of each recipient female Crl:NU-Foxn1nu mouse. Mice were housed in microisolator cages with corn cob bedding with additional enrichment consisting of sterile nesting material (Innovive) and Bio-huts (Bio-Serv). Water (Innovive) and diet (Teklad Global 19% Protein Extruded Diet 2919, Irradiated) were provided ad libitum. The environment was maintained on a 12-hour light cycle at approximately 68-72° F. and 40-60% relative humidity.
Tumor Volume (TV) was calculated using the following formula: TV (mm^3)=(width×width×length)/2. Tumor growth inhibition (TGI) was calculated by [(TV controlfinal−TV treatedfinal)/(TV controlfinal−TV controlinitial)×100]. TV was analyzed for statistical significance utilizing GraphPad Prism version 10.2.2. Repeated Measures 2-Way ANOVA with Dunnet's Multiple Comparisons was utilized, and P-values were derived from data collected on the date of Vehicle group termination and were considered statistically significant if less than 0.05.
Mean tumor volume at dosing start was approximately 190 mm^3, with six mice randomized to each treatment group. Mice were dosed orally, once per day, with Vehicle, Compound A at 10 mg/kg, or dosed for 3 consecutive days followed by 4 days holiday by intraperitoneal (IP) injection of Compound B at 5 mg/kg or 10 mg/kg, or combination of Compound A and Compound B. The vehicle group was a combination of Vehicle A (for Compound A, 0.5% 400 cps methylcellulose with 0.5% Tween-80 in sterile water) and Vehicle B (for irinotecan hydrochloride, Saline).

[3] = system: SKGT4; experiment: 10-day proliferation screen with Compound A pre-treatment (Example 3); assay type: cell-based; settings: read-out: Growth IC50
[4] = system: 15 pancreatic, non-small cell lung, and bladder cancer cell lines: 10 MTAP null and 5 MTAP wild-type; experiment: 10-day proliferation screen with Compound A pre-treatment, panel summary (Example 3); assay type: cell-based
Procedure: A 10-day proliferation screen was performed in 15 pancreatic, non-small cell lung, and bladder cancer cell lines: 10 MTAP null and 5 MTAP wild-type. Optimal cell seeding for all cell lines was determined by assessing the growth over a range of seeding densities in a 384-well format to identify conditions that permitted proliferation for 10 days. Cells were then plated at the optimal seeding density in the presence of 20-150 nM of Compound A or DMSO vehicle control. Cells were incubated at 37° C. with 5% CO2 for 4 days to allow for target engagement of the pre-treatment compound. Maintaining the pre-treatment condition, cells were also treated with an 11-point, three-fold titration series of compounds from a chemically diverse library of 424 compounds. […] A plate of cells was harvested at the time of combination compound addition to quantify the number of cells at the start of the combination (T0). For cell quantification, the harvested cells were lysed with CellTiter-Glo (CTG) (Promega) reagent according to the manufacturer's protocol and the chemiluminescent signal was detected on a Synergy Neo plate reader (ThermoFisher, serial #140715A). […] Cells were then lysed with CTG and the chemiluminescent signal was measured. CTG values obtained after the 10-day treatment were background subtracted, expressed as a percent of the T0 value, and plotted against compound concentration. […]

Row | IC50 ([3]; SKGT4, Cmpd A pre-treatment 150 nM) [µM] | IC50 ([3]; SKGT4, DMSO pre-treatment) [µM] | cell lines with growth IC50 shifts ≥2-fold ([4]; MTAP-deficient cell lines) | cell lines with growth IC50 shifts ≥2-fold ([4]; wild type cell lines) | Compound | Day 14 TGI [1] [%] | Day 14 TV (mean) ([1]; initial TV 249, vehicle 1069) [mm^3] | TGI ([1]; irinotecan 5 mg/kg IP 3 days on/4 days off) [%] | Day 25 TGI [2] [%] | Tumor Regression Rate on Day 25 [2] [%] | Day 25 TV (mean) ([2]; initial TV 191, vehicle 1396) [mm^3] | TGI ([2]; irinotecan 5 or 10 mg/kg IP 3 days on/4 days off) [%]
1 |  |  |  |  | Nc1nc(=O)n(-c2ccccc2Cl)c2nc(C(F)(F)F)ccc12 [Compound A] | 53 | 632 | 53 | 56 | 0 | 726 | 56
2 | 0.516 | 1.06 | 7/10 | 1/5 | NS(=O)(=O)c1ccc(S(=O)(=O)Nc2cccc3c(Cl)c[nH]c23)cc1 [Indisulam, N-(3-chloro-1H-indol-7-yl)benzene-1,4-disulfonamide] |  |  |  |  |  |  | 
